Data: patent US20250051390A1, “NOVEL ADIPONECTIN-DERIVED PEPTOID DERIVATIVE AND USE THEREOF” (SEOUL NATIONAL UNIVERSITY HOSPITAL, priority 2021, published 2025)
In brackets after ≈: the same amount, converted by molar mass. *1 amine or outer side, *2 acyl side, *3 side chain or, on linkers, in order; H or OH if unused. Where a SMILES comes first, the peptide text is derived from it. [ ]: non-standard residue; d: D form. Gly(N-4-hydroxybenzyl) = O=C(O)CNCc1ccc(O)cc1; X1 = O=C(CN(Cc1ccc(C(F)(F)F)cc1)[*:1])[*:2]; Gly(N-cPent) = O=C(O)CNC1CCCC1; Gly(NCH2cPr) = O=C(O)CNCC1CC1; N(cBu)Gly = O=C(O)CNC1CCC1; Nphe = O=C(O)CNCc1ccccc1

Assays:
adiponectin receptor 1 = biological target: T1, adiponectin receptor 1 (Mus musculus, UniProt Q91VH1); test: Loss of AMPK phosphorylation activity after knockdown of adiponectin receptor 1; format: cell-based; conditions: 3T3-L1, adiponectin receptor 1 siRNA, 10 μM, 24 hours
T1 construct: a mouse adipocyte cell line 3T3-L1 was treated with siRNA of an adiponectin receptor 1 to be knocked down; endogenous in cells; host or cells: 3T3-L1 mouse adipocyte cell line
T1 sequence (Q91VH1 1-375): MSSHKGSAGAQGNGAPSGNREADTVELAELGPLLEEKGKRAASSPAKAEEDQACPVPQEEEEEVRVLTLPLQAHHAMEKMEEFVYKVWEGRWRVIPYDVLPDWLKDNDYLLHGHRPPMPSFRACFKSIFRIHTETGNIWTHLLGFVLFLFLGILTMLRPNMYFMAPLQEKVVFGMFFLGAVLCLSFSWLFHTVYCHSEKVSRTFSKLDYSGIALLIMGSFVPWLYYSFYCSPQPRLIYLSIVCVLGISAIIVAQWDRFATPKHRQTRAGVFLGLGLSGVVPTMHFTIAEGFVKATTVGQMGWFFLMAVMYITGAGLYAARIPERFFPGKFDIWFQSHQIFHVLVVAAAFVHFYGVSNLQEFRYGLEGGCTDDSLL
Description: In order to verify whether the peptoid derivative of the present disclosure bound to an adiponectin receptor 1, a mouse adipocyte cell line 3T3-L1 was treated with siRNA of an adiponectin receptor 1 to be knocked down, and each of the peptoid derivatives of the present disclosure was treated at a concentration of 10 μM and cultured for 24 hours, and then cells were obtained. Thereafter, the proteins were extracted and it was confirmed by Western blot whether AMPK phosphorylation activity, which had been increased by the peptoid derivatives, was lost.

AMPK phosphorylation [1] = test: AMPK phosphorylation activity in mouse adipocytes (Western blot); format: cell-based; conditions: 3T3-L1, 10 μM, 24 hours; for AMPK phosphorylation activity (fold change): Western blot, APN5 = 1.0
Description: There were confirmed effects of the peptoid derivative of the present disclosure on the expression and receptor activity of adiponectin in mouse adipocytes as a main adiponectin production site. A mouse adipocyte cell line 3T3-L1 was treated with each of the peptoid derivatives of the present disclosure at a concentration of 10 μM and cultured for 24 hours, and then cells were obtained. Thereafter, the protein was extracted and the effect of adiponectin on AMPK phosphorylation, which was responsible for the main downstream signaling, was confirmed by Western blot.

in vitro [2] = conditions: human, plasma
Description: (§2) The peptoid derivative of the present disclosure was added at a concentration of 1 μM to two types of plasma (human, rat), placed in each tube, and then cultured at 37° C. for time of 0, 30, 60, 120, and 240 minutes. The tube containing plasma was taken out every time, added with an acetonitrile solution containing an internal standard material (chlorpropamide), vortexed for 5 minutes, and centrifuged for 5 minutes (14,000 rpm, 4° C.). Thereafter, the plasma stability of the peptoid derivative was evaluated by injecting the supernatant into an LC-MS/MS system and analyzing the drug at each time period. At this time, Procaine and Enalapril were used as reference materials for accuracy during a general plasma stability test.
(§3) After the reaction, the amount of drug remaining in each tube was analyzed by LC-MS/MS using Shimadzu Nexera XR system and TSQ vantage (Thermo). The HPLC column was used with a Luna C18 column (2.0×50 mm, 3 μm particle size; Phenomenex, US), and the mobile phase was distilled water (A) containing 0.1% formic acid and acetonitrile (B) containing 0.1% formic acid. Data analysis was performed using Xcalibur (version 1.6.1). In the result analysis, the plasma stability of each peptoid derivative was expressed as % remaining for each time period for the sample without culture.

physchem = conditions: pH 7.4
Description: (§4) A PRISMA HT solution was diluted in distilled water at a ratio of 1:40, and then used as a test buffer by adjusting the pH to 7.4.
(§5) 10 mL of the prepared test material was diluted in 190 μL of isopropyl alcohol and prepared. In addition, 75 mL of the test solution and 70 mL of isopropyl alcohol were mixed to be used as a blank sample, and 5 mL of the test material diluted in isopropyl alcohol was added to the blank sample. After the diluted sample was mixed, the absorbance was measured and used as an initial test value. […] Thereafter, the precipitate was removed from the sample using a filter plate, 74 mL of the filtered sample was added with 75 mL of isopropyl alcohol, and then the absorbance was measured and used as the sample value.
(§6) The solubility value of the test material was analyzed using a msol Explore (Solubility explorer program) after measuring the absorbance of each sample through a microplate reader. The average and standard deviation of the experimental values (n=3) repeated three times were calculated using the Excel program.

in vitro [3] = conditions: human, microsomes, pH 7.4
Description: (§7) Three types of liver microsomes (Human, Rat, Mouse, 0.5 mg/ml), a 0.1 M phosphate buffer solution (pH 7.4), and the peptoid derivative of the present disclosure were added at a concentration of 1 μM and pre-cultured at 37° C. for 5 minutes, and then added with an NADPH Regeneration system solution and cultured at 37° C. for 30 minutes. Thereafter, to terminate the reaction, the mixture was added with an acetonitrile solution containing an internal standard material (chlorpropamide), centrifuged for 5 minutes (14,000 rpm, 4° C.), and then the supernatant was injected into the LC-MS/MS system to analyze a substrate drug, and thus metabolic stability was evaluated.
(§8) The HPLC column was used with a Kinetex C18 column (2.1×100 mm, 1.7 μm particle size; Phenomenex, USA), and the mobile phase was distilled water (A) containing 0.1% formic acid and acetonitrile (B) containing 0.1% formic acid. TurboSpray Ionization was used as an ion source for MS/MS, and a triple quadruple type was used as a mass spectrometer. The produced metabolites were quantified using a multiple reaction monitoring (MRM) quantitative mode, and data analysis was performed using Analyst software (version 1.6.1).

in vitro [4] = conditions: rat, plasma
Description: as §2, §3

AMPK phosphorylation [5] = test: Concentration dependence of AMPK phosphorylation activity; format: cell-based, mouse; conditions: 3T3-L1, 0, 0.01, 0.1, 1, 10, and 100 μM, 24 hours
Description: Thereafter, the protein was extracted and the effect of the peptoid derivative on AMPK phosphorylation in a concentration-dependent manner was confirmed by Western blot.

in vitro [6] = conditions: rat, microsomes, pH 7.4
Description: as §7
(§9) The amount of substrate remaining through the reaction was analyzed by LC-MS/MS using Agilent 1290 infinity series pump system (Agilent, USA) and Triple Quad 5500 LC-MS/MS system (Applied Biosystems, USA). The HPLC column was used with a Kinetex C18 column (2.1×100 mm, 1.7 μm particle size; Phenomenex, USA), and the mobile phase was distilled water (A) containing 0.1% formic acid and acetonitrile (B) containing 0.1% formic acid. TurboSpray Ionization was used as an ion source for MS/MS, and a triple quadruple type was used as a mass spectrometer. The produced metabolites were quantified using a multiple reaction monitoring (MRM) quantitative mode, and data analysis was performed using Analyst software (version 1.6.1).

in vitro [7] = conditions: mouse, microsomes, pH 7.4
Description: as §7, §9

CYP2C19 = CYP2C19 (Homo sapiens, UniProt P33261); test: CYP inhibition assay, CYP2C19; conditions: 10 μM
Sequence of CYP2C19 (P33261 whole entry): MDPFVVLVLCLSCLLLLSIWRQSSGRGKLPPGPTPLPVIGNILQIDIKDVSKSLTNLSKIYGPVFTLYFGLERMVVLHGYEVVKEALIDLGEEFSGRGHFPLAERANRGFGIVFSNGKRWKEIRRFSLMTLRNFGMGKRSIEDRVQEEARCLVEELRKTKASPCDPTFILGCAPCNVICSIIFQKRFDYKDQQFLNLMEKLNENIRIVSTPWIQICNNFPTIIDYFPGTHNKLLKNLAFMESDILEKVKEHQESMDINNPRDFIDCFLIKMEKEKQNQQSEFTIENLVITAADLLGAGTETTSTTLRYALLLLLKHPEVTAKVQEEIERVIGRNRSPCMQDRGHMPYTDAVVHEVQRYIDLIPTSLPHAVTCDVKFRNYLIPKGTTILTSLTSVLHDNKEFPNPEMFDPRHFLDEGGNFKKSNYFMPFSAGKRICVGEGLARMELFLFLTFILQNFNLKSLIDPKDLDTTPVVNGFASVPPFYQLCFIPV
Description: (§1) Metabolites of each CYP isoenzyme indicator drug produced through the reaction were analyzed by LC-MS/MS using the Shimadzu Nexera XR system and TSQ vantage (Thermo).

[8] = Plasma stability test, rat plasma; conditions: 1 μM, 37° C.
Description: as §2, §3

CYP2C9 = CYP2C9 (Homo sapiens, UniProt P11712); test: CYP inhibition assay, CYP2C9; conditions: 10 μM
Sequence of CYP2C9 (P11712 whole entry): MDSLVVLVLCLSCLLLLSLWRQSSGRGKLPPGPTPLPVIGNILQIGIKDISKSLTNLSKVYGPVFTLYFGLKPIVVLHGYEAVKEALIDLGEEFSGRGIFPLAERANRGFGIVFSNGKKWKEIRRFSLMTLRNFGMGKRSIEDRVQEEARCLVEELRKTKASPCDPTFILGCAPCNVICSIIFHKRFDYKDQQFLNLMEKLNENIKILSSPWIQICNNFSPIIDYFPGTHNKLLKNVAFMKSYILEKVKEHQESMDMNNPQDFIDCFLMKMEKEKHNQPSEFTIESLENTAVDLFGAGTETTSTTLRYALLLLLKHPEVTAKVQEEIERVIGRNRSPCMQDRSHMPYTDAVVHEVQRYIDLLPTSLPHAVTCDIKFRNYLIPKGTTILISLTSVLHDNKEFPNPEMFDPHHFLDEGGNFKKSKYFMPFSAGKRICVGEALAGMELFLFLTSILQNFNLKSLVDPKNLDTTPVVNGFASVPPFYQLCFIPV
Description: as §1

Solubility test = conditions: test buffer pH 7.4, DMSO test standard solution, room temperature 24 hours, n=3
Description: as §4, §5, §6

[9] = Metabolic stability test, rat liver microsomes; conditions: rat liver microsomes 0.5 mg/ml, 1 μM, NADPH, 37° C.
Description: as §7, §9

[10] = Metabolic stability test, human liver microsomes; conditions: human liver microsomes 0.5 mg/ml, 1 μM, NADPH, 37° C.
Description: as §7, §8

[11] = Metabolic stability test, mouse liver microsomes; conditions: mouse liver microsomes 0.5 mg/ml, 1 μM, NADPH, 37° C.
Description: as §7, §9

[12] = Plasma stability test, human plasma; conditions: 1 μM, 37° C.
Description: as §2, §3

CYP1A2 = biological target: T2, CYP1A2 (Homo sapiens, UniProt P05177); test: CYP inhibition assay, CYP1A2; conditions: human liver microsomes 0.25 mg/ml, 10 μM, 15 minutes
T2 sequence (P05177 1-516): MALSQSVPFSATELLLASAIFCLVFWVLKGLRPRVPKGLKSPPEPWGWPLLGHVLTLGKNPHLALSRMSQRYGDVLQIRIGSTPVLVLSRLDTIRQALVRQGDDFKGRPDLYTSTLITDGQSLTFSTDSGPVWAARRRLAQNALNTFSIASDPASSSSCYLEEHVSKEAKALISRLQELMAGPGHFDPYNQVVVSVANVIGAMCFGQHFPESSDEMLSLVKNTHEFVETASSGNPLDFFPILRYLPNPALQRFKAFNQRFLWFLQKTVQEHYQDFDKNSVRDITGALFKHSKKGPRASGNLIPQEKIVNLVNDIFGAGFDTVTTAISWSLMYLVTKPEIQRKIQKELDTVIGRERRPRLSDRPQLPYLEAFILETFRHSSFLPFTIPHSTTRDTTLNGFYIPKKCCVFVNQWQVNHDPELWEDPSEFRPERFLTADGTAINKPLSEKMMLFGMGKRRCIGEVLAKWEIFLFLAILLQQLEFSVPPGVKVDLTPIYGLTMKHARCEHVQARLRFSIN
Description: as §1

[13] = human liver microsomes 0.25 mg/ml, 15 minutes
[14] = human, microsomes, 15 min, pH 7.4

## NCC(=O)N(CC(=O)N(CC(=O)N(CC(=O)N(CC(N)=O)Cc1ccccc1)Cc1ccc(O)cc1)Cc1ccc(O)cc1)C1CCC1 [DS-15, Ngly-Ncba-Ntyr-Ntyr-Nbn-NH2] (H-G[N(cBu)Gly][Gly(N-4-hydroxybenzyl)][Gly(N-4-hydroxybenzyl)][Nphe]-NH2)
Adiponectin receptor 1
  AMPK phosphorylation activity after knockdown of the adiponectin receptor 1: reduced the AMPK phosphorylation activity
AMPK phosphorylation [1]
  effect of increasing AMPK phosphorylation activity compared to APN5: significant effect of increasing AMPK phosphorylation activity
  AMPK phosphorylation activity (fold change): 1.2 fold change

## NCC(=O)N(CC(=O)N(CC(=O)N(CC(=O)N(CC(N)=O)Cc1ccccc1)Cc1ccc(O)cc1)Cc1ccc(O)cc1)C1CCCC1 [DS-16, Ngly-Ncpe-Ntyr-Ntyr-Nbn-NH2] (H-G[Gly(N-cPent)][Gly(N-4-hydroxybenzyl)][Gly(N-4-hydroxybenzyl)][Nphe]-NH2)
In vitro [2]
  remaining at 0.5 h, 1 μM: > 100%
  remaining at 2 h, 1 μM: > 100%
physchem
  solubility at 24 h: 333 µg/mL (≈ 495 µM)
Adiponectin receptor 1
  AMPK phosphorylation activity after knockdown of the adiponectin receptor 1: reduced the AMPK phosphorylation activity
In vitro [3]
  remaining at 0.5 h, 1 μM: 87.1%
In vitro [4]
  remaining at 0.5 h, 1 μM: > 100%
  remaining at 2 h, 1 μM: 99.5%
AMPK phosphorylation [5]
  concentration dependence of AMPK phosphorylation activity: increased AMPK phosphorylation activity in a concentration-dependent manner
AMPK phosphorylation [1]
  effect of increasing AMPK phosphorylation activity compared to APN5: significant effect of increasing AMPK phosphorylation activity
  AMPK phosphorylation activity (fold change): 1.4 fold change
In vitro [6]
  remaining at 0.5 h, 1 μM: 79.8%
In vitro [7]
  remaining at 0.5 h, 1 μM: 75.5%

## NCC(=O)N(CC(=O)N(CC(=O)N(CC(=O)N(CC(N)=O)Cc1ccccc1)Cc1ccc(O)cc1)Cc1ccccc1)C1CCCC1 [DS-25, Ngly-Ncpe-Nbn-Ntyr-Nbn-NH2] (H-G[Gly(N-cPent)][Nphe][Gly(N-4-hydroxybenzyl)][Nphe]-NH2)
In vitro [2]
  remaining at 0.5 h, 1 μM: 98.6%
  remaining at 2 h, 1 μM: 98.4%
physchem
  solubility at 24 h: 325 µg/mL (≈ 495 µM)
Adiponectin receptor 1
  AMPK phosphorylation activity after knockdown of the adiponectin receptor 1: reduced the AMPK phosphorylation activity
In vitro [3]
  remaining at 0.5 h, 1 μM: 93.6%
In vitro [4]
  remaining at 0.5 h, 1 μM: > 100%
  remaining at 2 h, 1 μM: 95.9%
AMPK phosphorylation [5]
  concentration dependence of AMPK phosphorylation activity: increased AMPK phosphorylation activity in a concentration-dependent manner
AMPK phosphorylation [1]
  effect of increasing AMPK phosphorylation activity compared to APN5: significant effect of increasing AMPK phosphorylation activity
  AMPK phosphorylation activity (fold change): 2.1 fold change
In vitro [6]
  remaining at 0.5 h, 1 μM: 80.9%
In vitro [7]
  remaining at 0.5 h, 1 μM: 76%

## NCC(=O)N(CC(=O)N(CC(=O)N(CC(=O)N(CC(N)=O)Cc1ccccc1)Cc1ccc(O)cc1)Cc1ccc(O)cc1)CC1CC1 [DS-31, Ngly-Ncpr-Ntyr-Ntyr-Nbn-NH2] (H-G[Gly(NCH2cPr)][Gly(N-4-hydroxybenzyl)][Gly(N-4-hydroxybenzyl)][Nphe]-NH2)
In vitro [2]
  remaining at 0.5 h, 1 μM: > 100%
  remaining at 2 h, 1 μM: > 100%
In vitro [3]
  remaining at 0.5 h, 1 μM: 93.7%
In vitro [4]
  remaining at 0.5 h, 1 μM: > 100%
  remaining at 2 h, 1 μM: > 100%
In vitro [6]
  remaining at 0.5 h, 1 μM: 83.7%
In vitro [7]
  remaining at 0.5 h, 1 μM: 72.2%

## O=C(COc1ccc(C(=O)c2ccccc2)cc1)NC1CCN(Cc2ccccc2)CC1 [DS-43, adiporon]
CYP2C19; [13]
  CYP inhibition (% of control activity) CYP2C19: 66.0 % of control activity
[8]
  Plasma stability (% remaining) Rat, 30 m: >100 % remaining
  Plasma stability (% remaining) Rat, 120 m: >100 % remaining
CYP2C9; [13]
  CYP inhibition (% of control activity) CYP2C9: 57.8 % of control activity
Solubility test
  Average DMSO solubility: 43.7 µg/mL
[9]
  Metabolic stability (% remaining) Rat, 30 m: 2.3 % remaining
[10]
  Metabolic stability (% remaining) Human, 30 m: 54.9 % remaining
AMPK phosphorylation [1]
  AMPK phosphorylation activity (fold change): 1.2 fold change
[11]
  Metabolic stability (% remaining) Mouse, 30 m: 3.1 % remaining
[12]
  Plasma stability (% remaining) Human, 30 m: >100 % remaining
  Plasma stability (% remaining) Human, 120 m: >100 % remaining

## NCC(=O)N(CC(=O)N(CC(=O)N(CC(=O)N(CC(N)=O)Cc1ccc(C(F)(F)F)cc1)Cc1ccccc1)Cc1ccccc1)C1CCCC1 [DS-47, Ngly-Ncpe-Nbn-Ntfb-Nbn-NH2] (H-G[Gly(N-cPent)][Nphe][Nphe][X1]-NH2)
In vitro [2]
  remaining at 0.5 h, 1 μM: > 100%
  remaining at 2 h, 1 μM: > 100%
physchem
  solubility at 24 h: 351 µg/mL (≈ 495 µM)
Adiponectin receptor 1
  AMPK phosphorylation activity after knockdown of the adiponectin receptor 1: reduced the AMPK phosphorylation activity
In vitro [3]
  remaining at 0.5 h, 1 μM: 77.2%
In vitro [4]
  remaining at 0.5 h, 1 μM: > 100%
  remaining at 2 h, 1 μM: > 100%
AMPK phosphorylation [1]
  effect of increasing AMPK phosphorylation activity compared to APN5: significant effect of increasing AMPK phosphorylation activity
  AMPK phosphorylation activity (fold change): 1.6 fold change
In vitro [6]
  remaining at 0.5 h, 1 μM: 73%
In vitro [7]
  remaining at 0.5 h, 1 μM: 95.3%

## NCC(=O)N(CCC(=O)O)CC(=O)N(CC(=O)N(CC(=O)N(CC(N)=O)Cc1ccccc1)Cc1ccc(C(F)(F)F)cc1)Cc1ccc(C(F)(F)F)cc1 [DS-71, Ngly-Nasp-Ntfp-Ntfp-Nbn-NH2]
In vitro [2]
  remaining at 0.5 h, 1 μM: > 100%
  remaining at 2 h, 1 μM: > 100%
physchem
  solubility at 24 h: 73.3 µg/mL (≈ 93.8 µM)
In vitro [3]
  remaining at 0.5 h, 1 μM: > 100%
In vitro [4]
  remaining at 0.5 h, 1 μM: > 100%
  remaining at 2 h, 1 μM: > 100%
In vitro [6]
  remaining at 0.5 h, 1 μM: > 100%
In vitro [7]
  remaining at 0.5 h, 1 μM: 84.4%

## CCOC(=O)[C@H](CCc1ccccc1)N[C@@H](C)C(=O)N1CCC[C@H]1C(=O)O [Enalapril]
[8]
  Plasma stability (% remaining) Rat, 30 m: 27.9 % remaining
  Plasma stability (% remaining) Rat, 120 m: <1 % remaining
[12]
  Plasma stability (% remaining) Human, 30 m: >100 % remaining
  Plasma stability (% remaining) Human, 120 m: 97.4 % remaining

## CC(=O)N1CCN(c2ccc(OCC3COC(Cn4ccnc4)(c4ccc(Cl)cc4Cl)O3)cc2)CC1 (stereo not drawn) [Ketoconazole]
CYP2C19; [14]
  CYP inhibition (% of control activity) CYP2C19: >100 % of control activity
CYP2C9; [14]
  CYP inhibition (% of control activity) CYP2C9: >100 % of control activity
CYP1A2
  CYP inhibition (% of control activity) CYP1A2: 97.2 % of control activity

## CCN(CC)CCOC(=O)c1ccc(N)cc1 [Procaine]
[8]
  Plasma stability (% remaining) Rat, 30 m: 90.3 % remaining
  Plasma stability (% remaining) Rat, 120 m: 57.4 % remaining
[12]; 5 min as printed in the cell
  Plasma stability (% remaining) Human, 30 m column, cell marked (5 min): 2.8 (5 min) % remaining
  Plasma stability (% remaining) Human, 120 m column, cell marked (5 min): <1 (5 min) % remaining
